Assay results: PubChem BioAssay (NCI)
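The compound was tested at five concentrations on cells cultured in 96-well plates, with a 48-hour exposure period. TGI marks complete inhibition of growth.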

Assays:
Assay in all cases: inhibition of tumour cell growth, NCI panel, 48 h
[1] = system: NCI-H460 lung
[2] = system: PC-3 prostate
[3] = system: MDA-MB-435
[4] = system: DU-145 prostate
[5] = system: COLO 205 colon
[6] = system: IGROV1 ovarian
[7] = system: HCT-116 colon
[8] = system: SF-539 CNS
[9] = system: LOX IMVI melanoma
[10] = system: U251 CNS
[11] = system: NCI-H226 lung
[12] = system: UACC-257 melanoma
[13] = system: OVCAR-4 ovarian
[14] = system: T-47D breast
[15] = system: BT-549 breast
[16] = system: HL-60(TB) leukemia
[17] = system: MDA-MB-231 breast
[18] = system: OVCAR-3 ovarian
[19] = system: MCF7 breast
[20] = system: RXF 393 renal
[21] = system: HOP-62 NSCLC
[22] = system: CCRF-CEM leukemia
[23] = system: MDA-N
[24] = system: A549 NSCLC
[25] = system: SF-295 CNS
[26] = system: SF-268 CNS
[27] = system: NCI/ADR-RES ovarian
[28] = system: SNB-75 CNS
[29] = system: A498 renal
[30] = system: SK-MEL-28 melanoma
[31] = system: SK-OV-3 ovarian
[32] = system: K-562 leukemia
[33] = system: NCI-H23 lung
[34] = system: 786-0 renal
[35] = system: SK-MEL-2 melanoma
[36] = system: UACC-62 melanoma
[37] = system: CAKI-1 renal
[38] = system: EKVX NSCLC
[39] = system: M14 melanoma
[40] = system: UO-31 renal
[41] = system: OVCAR-8 ovarian
[42] = system: MOLT-4 leukemia
[43] = system: SW-620 colon
[44] = system: ACHN renal
[45] = system: HT29 colon
[46] = system: HS 578T breast
[47] = system: MALME-3M melanoma
[48] = system: HCC-2998 colon
[49] = system: KM12 colon
[50] = system: RPMI-8226 leukemia
[51] = system: NCI-H522 lung
[52] = system: HCT-15 colon
[53] = system: SK-MEL-5 melanoma
[54] = system: SN12C renal
[55] = system: TK-10 renal
[56] = system: SNB-19 CNS
[57] = system: HOP-92 NSCLC
[58] = system: OVCAR-5 ovarian

Compound `CCOC(=O)C(C(=O)OCC)C1C=CCC2c3ccccc3COCC21` (stereo not drawn) has a TGI [1] of over 100 µM, a TGI [2] of over 100 µM and a TGI [3] of over 100 µM. It also gave a TGI [4] of over 100 µM, a TGI [5] of 48.9 µM and a TGI [6] of over 100 µM. It also gave a TGI [7] of over 100 µM, a TGI [8] of over 100 µM and a TGI [9] of over 100 µM. For the same compound, the TGI [10] was over 100 µM, the TGI [11] was over 100 µM and the TGI [12] was over 100 µM. For the same compound, the TGI [13] was over 100 µM, the TGI [14] was over 100 µM and the TGI [15] was over 100 µM. The TGI [16] was 56.8 µM, the TGI [17] was over 100 µM and the TGI [18] was over 100 µM. The TGI [19] was over 100 µM, the TGI [20] was over 100 µM and the TGI [21] was over 100 µM. It also gave a TGI [22] of over 100 µM, a TGI [23] of over 100 µM and a TGI [24] of over 100 µM. For the same compound, the TGI [25] was over 100 µM, the TGI [26] was over 100 µM and the TGI [27] was 96.1 µM. For the same compound, the TGI [28] was over 100 µM, the TGI [29] was over 100 µM and the TGI [30] was over 100 µM. For the same compound, the TGI [31] was over 100 µM, the TGI [32] was over 100 µM and the TGI [33] was over 100 µM. For the same compound, the TGI [34] was over 100 µM, the TGI [35] was over 100 µM and the TGI [36] was over 100 µM. The TGI [37] was over 100 µM, the TGI [38] was over 100 µM and the TGI [39] was over 100 µM. It also gave a TGI [40] of over 100 µM, a TGI [41] of over 100 µM and a TGI [42] of over 100 µM. It also gave a TGI [43] of over 100 µM, a TGI [44] of over 100 µM and a TGI [45] of over 100 µM. The TGI [46] was over 100 µM, the TGI [47] was over 100 µM and the TGI [48] was over 100 µM. The TGI [49] was over 100 µM, the TGI [50] was over 100 µM and the TGI [51] was 71.2 µM. For the same compound, the TGI [52] was over 100 µM, the TGI [53] was 36 µM and the TGI [54] was over 100 µM. For the same compound, the TGI [55] was over 100 µM, the TGI [56] was over 100 µM and the TGI [57] was over 100 µM. For the same compound, the TGI [58] was over 100 µM.
